Patent publication US20220249523A1, “BENZOAZEPINE COMPOUND-CONTAINING FREEZE-DRIED COMPOSITION” (OTSUKA PHARMACEUTICAL CO., LTD., priority 2019, published 2022)

How the values were obtained:
Assay type in all cases: physicochemical
[1] = Solubility in water of compound (1) and its metal salts
Description: (§1) The stability of these metal salts in a solid state was analyzed. […] Additionally, the solubility in water was analyzed.

[2] = Stability of metal salts of compound (1) in a solid state; details: compared to compound (1)
Description: as §1

[3] = Stability of phosphate ester bond in aqueous solution on high-pressure steam sterilization (HPLC area normalization); details: 0.1 w/v % aqueous solution, 121° C., 20 minutes
Description: Aqueous solutions containing compound (1) at a concentration of 0.1 w/v % were prepared, and the stability of the aqueous solutions when subjected to high-pressure steam sterilization (121° C., 20 minutes) was analyzed. The aqueous solutions were prepared using a 100 mM sodium phosphate buffer or a 100 mM Tris buffer. The pH of the aqueous solutions prepared using each of the buffers was adjusted with sodium hydroxide to prepare solutions with different pHs. After the treatment, the purity of compound (1) and the amount of tolvaptan produced were determined by the HPLC area normalization method.

[4] = Storage stability of freeze-dried compositions: amount of tolvaptan produced (HPLC area normalization); details: for Amount of tolvaptan produced: freeze-dried composition, compound (1) 0.1 w/v %; for Amount of tolvaptan produced / Amount of tolvaptan produced (%): 60° C. for 1 month; for Amount of tolvaptan produced (%): freeze-dried
Description: Aqueous solutions containing compound (1) (0.1 w/v %), mannitol (4 w/v %), and sodium hydroxide (q.s.) were prepared (pH 7, 7.5, 8, 8.5, or 9) using a 20 mM disodium hydrogen phosphate buffer.
The aqueous solutions were each placed in a 2-mL glass vial, and frozen to a temperature of −40° C. or lower. Thereafter, the vials were depressurized to vacuum, and water was removed during freeze-drying to thus obtain freeze-dried compositions. The resulting products were stored at 40° C. for 3 months, or at 60° C. for 1 month; and then reconstituted with the same amount of water as that removed by freeze-drying, to return the products back to aqueous solutions. The amount of total degradation products or tolvaptan produced (%) in each of the obtained aqueous solutions was determined by the HPLC area normalization method.
Freeze-dried compositions were prepared in the same manner as in the “Analysis 1: Stability of Freeze-Dried Formulation of Compound (1)” section above using additives other than mannitol, i.e., NaCl, sorbitol, sucrose, maltose, trehalose, or lactose. Here, the pH of the aqueous solutions before preparing freeze-dried compositions was adjusted to 8.5. However, for lactose, the pH of the aqueous solution before preparing a freeze-dried composition was adjusted to 9.0 with a 24 mM sodium hydrogen carbonate buffer.
After the obtained freeze-dried compositions were stored at 60° C. for 1 month, the amount of tolvaptan produced was determined by the HPLC area normalization method, and the stability of compound (1) in each composition was analyzed. […] The reduction was particularly remarkable with sucrose, maltose, and lactose. Additionally, after storage at 60° C. for 1 week of the aqueous solutions before preparing freeze-dried compositions, the stability of compound (1) in each composition was analyzed. […] The results confirmed that the use of maltose or lactose increased the amount of tolvaptan produced (%).
Aqueous solutions with a pH of 7.5, 8, 8.5, or 9 were prepared in the same manner as in the “Analysis 2: Stability of Freeze-Dried Formulation of Compound (1)” section above, except that compound A at a concentration of 0.541 w/v % and sucrose at a concentration of 7.5 w/v % were used. The resulting aqueous solutions were freeze-dried to obtain freeze-dried compositions. The freeze-dried compositions were stored at 60° C. for 1 month. Thereafter, the amount of tolvaptan produced (%) was determined by the HPLC area normalization method.
An aqueous solution with a pH of 8.5 was prepared in the same manner as in the “Analysis 1: Stability of Freeze-Dried Formulation of Compound A” section above, using potassium phosphate instead of sodium phosphate as a buffering agent. Further, a freeze-dried composition was prepared to analyze the stability of compound A in the freeze-dried composition (after storage at 60° C. for 1 month). The amount of tolvaptan produced (%) was 0.07%, which was the same as when sodium phosphate was used.
Aqueous solutions with a pH of 8.0 were prepared in the same manner as in the “Analysis 1: Stability of Freeze-Dried Formulation of Compound A” section above, such that the sucrose concentration was 1%, 2%, 4%, or 7.5%. Further, the freeze-dried compositions were prepared to analyze the stability of compound A in the freeze-dried compositions (after storage at 60° C. for 1 month). The amount of tolvaptan produced (%) was 0.25% when the sucrose concentration was 1%, 0.12% when the sucrose concentration was 2%, 0.08% when the sucrose concentration was 4%, and 0.10% when the sucrose concentration was 7.5%.
In addition to the aqueous solution containing sodium phosphate at a concentration of 20 mM and having a pH of 8.5, aqueous solutions containing sodium phosphate at a concentration of 10 mM or 50 mM were also prepared as in the same manner as the “Analysis 1: Stability of Freeze-Dried Formulation of Compound A” section above. […]

[5] = pH at reconstitution with water of stored freeze-dried compositions; details: initial pH 8.5
Description: In addition to the aqueous solution containing sodium phosphate at a concentration of 20 mM and having a pH of 8.5, aqueous solutions containing sodium phosphate at a concentration of 10 mM or 50 mM were also prepared as in the same manner as the “Analysis 1: Stability of Freeze-Dried Formulation of Compound A” section above. Further, freeze-dried compositions were prepared to analyze the stability of compound A in the freeze-dried compositions (after storage at 60° C. for 1 month, or at 40° C. for 3 months). Thereafter, the pH at the time of reconstitution with water was analyzed.

[6] = Appearance on reconstitution of freeze-dried compositions with water (foaming, cloudiness); details: freeze-dried compositions with a sucrose concentration of 4% or 7.5%, pH 8.0

In the case of `[O-][n+]1ccccc1[S-].[O-][n+]1ccccc1[S-].[Zn+2]` [Zinc salt], the Solubility in water [1] is reported as 0.003 w/v % and the “Stability in a solid state” value [2] is reported as “remarkably improved stability”.

With `Cc1ccccc1C(=O)Nc1ccc(C(=O)N2CCCC(OP(=O)(O)O)c3cc(Cl)ccc32)c(C)c1` (stereo not drawn) [compound (1)] the Solubility in water [1] was 0.14 w/v %, the “Stability of phosphate ester bond on high-pressure steam sterilization” value ([3]; sodium phosphate buffer having a pH of 7.5 or more) was “highly stable” and the “Stability of phosphate ester bond on high-pressure steam sterilization” value ([3]; tolvaptan formed as a precipitate) was “hydrolyzed”. The “Amount of tolvaptan produced” value ([4]; mannitol 4 w/v %, solution pH 8.5) was 1.45%, the “Amount of tolvaptan produced” value ([4]; mannitol 4 w/v %, solution pH 9) was 0.9% and the “Stability in freeze-dried compositions” value ([4]; mannitol 4 w/v %, solutions with a pH exceeding 8, storage at 60° C.) was “relatively stable”.

For `Cc1ccccc1C(=O)Nc1ccc(C(=O)N2CCCC(OP(=O)([O-])[O-])c3cc(Cl)ccc32)c(C)c1.[Na+].[Na+]` (stereo not drawn) [compound A], the Solubility in water [1] was ≥ 4 w/v %, the “Stability in a solid state” value [2] was “remarkably improved stability” and the “Amount of tolvaptan produced (%)” value ([4]; compound A 0.541 w/v %, sucrose 7.5 w/v %, 20 mM sodium phosphate, pH 7.5) was 0.22%. The “Amount of tolvaptan produced (%)” value ([4]; compound A 0.541 w/v %, sucrose 7.5 w/v %, 20 mM sodium phosphate, pH 8) was 0.10%, the “Amount of tolvaptan produced (%)” value ([4]; compound A 0.541 w/v %, sucrose 7.5 w/v %, 20 mM sodium phosphate, pH 8.5) was 0.07% and the “Amount of tolvaptan produced (%)” value ([4]; compound A 0.541 w/v %, sucrose 7.5 w/v %, 20 mM sodium phosphate, pH 9) was “below the detection limit”. For the same compound, the “Amount of tolvaptan produced (%)” value ([4]; compound A, pH 8.0, sucrose concentration 1%) was 0.25%, the “Amount of tolvaptan produced (%)” value ([4]; compound A, pH 8.0, sucrose concentration 2%) was 0.12% and the “Amount of tolvaptan produced (%)” value ([4]; compound A, pH 8.0, sucrose concentration 4%) was 0.08%. The “Amount of tolvaptan produced (%)” value ([4]; compound A, sucrose 7.5 w/v %, pH 8.5, sodium phosphate 10 mM) was 0.07%, the “Amount of tolvaptan produced (%)” value ([4]; compound A, sucrose 7.5 w/v %, pH 8.5, sodium phosphate 50 mM) was “below the detection limit” and the “Amount of tolvaptan produced (%)” value ([4]; compound A, sucrose 7.5 w/v %, potassium phosphate instead of sodium phosphate, pH 8.5) was 0.07%. For the same compound, the “pH at 40° C. 3 months later” value ([5]; sodium phosphate 10 mM) was 8.16, the “pH at 60° C. 1 month later” value ([5]; sodium phosphate 10 mM) was 8.24 and the “pH at 40° C. 3 months later” value ([5]; sodium phosphate 20 mM) was 8.24. For the same compound, the “pH at 60° C. 1 month later” value ([5]; sodium phosphate 20 mM) was 8.34, the “pH at 40° C. 3 months later” value ([5]; sodium phosphate 50 mM) was 8.30 and the “pH at 60° C. 1 month later” value ([5]; sodium phosphate 50 mM) was 8.36. For the same compound, the “Appearance when reconstituted with water” value [6] was “foaming and slight cloudiness were observed”.
